Data from US20130022620A1, “ASSAYS AND METHODS PERTAINING TO PRE-AMYLOID INTERMEDIATES” (priority 2011, published 2013).

Legend:
[1] = test system: MCP-1 and IL-1β mRNA expression; experiment: qRT-PCR of MCP-1 and IL-1β mRNA in β-cells; format: cell-based, rat; conditions: β-cells stimulated with peptide
Method: (§1) Assays for qRT-PCR were carried out in 6-well plates. Total cellular RNA was isolated from h-IAPP stimulated β-cells using Qiagen RNA isolation kit, and the quality of RNA samples was determined by measurement of 260:280 ratio. Only samples with a 260:280 ratio of 2.0 or higher were used for reverse transcription. RNA samples were also treated by RNAse-free DNAse to avoid genomic DNA contamination. One microgram of RNA from each sample was reverse-transcribed to cDNA using MCP-1 and IL-1β primers. Non-template negative controls were also performed to monitor non-specific reactions. RNA isolated from rat IAPP and non-h-IAPP treated beta cells were used as negative controls. Equal amounts of RNA were used in each qRT-PCR reaction, and 18S was used as the internal control for amplification at the same time. qRT-PCR reactions were carried out using an Applied Biosystems 7500 RealTime PCR machine. The relative mRNA contents were normalized using 18S and quantification was carried out using qRT-PCR Quantifier Software.

sRAGE = target: T1, sRAGE (Homo sapiens, UniProt Q15109); experiment: Tryptophan fluorescence quenching assay of sRAGE binding; conditions: sRAGE added at different time points of the reaction, 1:1 molar ratio
T1 construct: the soluble extracellular domain of RAGE (sRAGE); made in house; host or cells: Sf9 insect cells (baculovirus)
T1 sequence (Q15109 23-342): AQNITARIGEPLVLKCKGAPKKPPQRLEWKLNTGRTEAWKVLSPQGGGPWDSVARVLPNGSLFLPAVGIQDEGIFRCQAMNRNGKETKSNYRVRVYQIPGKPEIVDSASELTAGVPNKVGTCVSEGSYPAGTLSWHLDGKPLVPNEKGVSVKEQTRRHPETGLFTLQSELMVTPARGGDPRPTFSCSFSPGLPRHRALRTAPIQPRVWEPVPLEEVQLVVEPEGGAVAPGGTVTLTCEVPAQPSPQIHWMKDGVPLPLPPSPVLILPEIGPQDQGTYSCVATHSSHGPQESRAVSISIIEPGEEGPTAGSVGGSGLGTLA
Description: The quenching of tryptophan fluorescence indicates binding. Fluorescence measurements were made at right angle in a […] dual path length quartz cuvette, using a Photon Technology International fluorescent spectrometer (280 nm excitation and 350 nm emission). Background fluorescence from buffer and IAPP peptides were negligible. The fluorescence quantum yield reported for each time point is an average of 20 reads over 20 seconds (2.5 nm bandwidth and 1 second integration time). Final solution conditions contained 16 mM tris HCl (pH 7.4).

mouse pancreatic islets = experiment: AlamarBlue cell viability assay of pancreatic islets; format: cell-based; conditions: FVB
[2] = test system: mouse aortic smooth muscle cells; experiment: AlamarBlue cell viability assay of aortic smooth muscle cells; format: cell-based
Method: Mouse vascular SMCs were cultured from the aortas of 10-week-old male mice using a modification of the procedure of Tarvo and Barret. See Tarvo et al. Blood Vessels. 1980; 17:110-116. SMCs were cultured following an explant protocol in accordance with institutional guidelines. […] Cyto-toxicity was measured by AlamarBlue assay. INS-1 β-cells were seeded at a density of 30,000 cells per well in 96-well plates and cultured for 24 hours prior to stimulation with IAPP. Human and rat IAPP were dissolved and incubated in 16 mM tris HCl (pH 7.4, 25° C.) prior to cell stimulation. AlamarBlue was diluted ten-fold in culture media and cells were incubated for 5 hours at 37° C. Fluorescence (excitation 530; emission 590 nm) was measured on a Beckman Coulter DTX880 fluorescent plate reader. Values calculated were relative to those of control cells treated with buffer only. All values represent means±SEM (n=3).

[3] = test system: MCP-1 and IL-1β mRNA expression; experiment: qRT-PCR of MCP-1 and IL-1β mRNA in smooth muscle cells; format: cell-based, mouse; conditions: peptide stimulation
Method: Mouse vascular SMCs were cultured from the aortas of 10-week-old male mice using a modification of the procedure of Tarvo and Barret. See Tarvo et al. Blood Vessels. 1980; 17:110-116. SMCs were cultured following an explant protocol in accordance with institutional guidelines. Cultures were composed of 95% SM-α-actin positivity based on immunostaining.
as §1

[4] = format: physicochemical
Method: We recorded 2D-IR spectra of the intermediate species. The results are consistent with a lack of beta sheet structure and support the CD data (FIG. 4B). […] Samples of h-IAPP intermediates and h-IAPP amyloid fibrils were pelleted at 20,000 G for 20 minutes and the amount of soluble peptide remaining in the supernatant was measured. […] Characterization of the species in the supernatant and resuspended pellet by thioflavin-T and TEM, before addition of the solutions to cultured cells, confirm the absence of amyloid in the soluble phase and the presence of amyloid in the resuspended pellet. […] ANS is a small hydrophobic dye which has been widely used in protein folding studies. It typically binds to partially structured states which are rich in secondary structure, compact, but which have not yet established the final tertiary structure. […] The dye did bind to the final amyloid fibrils; an effect that is mediated in part by electrostatic interactions. A set of p-cyano-phenylalanine (p-cyanoPhe) analogs of h-IAPP were examined to probe further the nature of the toxic intermediate species. h-IAPP contains two phenylalanines at positions 15 and 23 and a single tyrosine located at the C-terminus. A set of three analogs were prepared in which one aromatic residue was replaced by p-cyanoPhe. […] It can also be quenched via FRET to tyrosine. p-CyanoPhe fluorescence is high for unaggregated IAPP and is quenched in the amyloid fibers. The intermediate species have high p-cyanoPhe fluorescence intensity and the value is the same as that of freshly dissolved material.

ANS binding assay = format: physicochemical; conditions: 10 μM ANS, pH 7.4
Method: 8-Anilinonaphthalenesulfonic Acid (ANS) is a small hydrophobic dye which is been widely used in protein folding studies. It typically binds to partially structured states which are rich in secondary structure, compact, but which have not yet established the final tertiary structure, thus this dye can be used to detect a molten globule-like character of proteins. Fluorescence spectra of ANS-peptide complexes were measured using a Spex Fluorolog fluorimeter at 25 C (370 nm excitation and 460 nm emission). ANS-peptide complexes were monitored by adding aliquots of human IAPP to a 1 cm cuvette containing 10 μM ANS at various times along the amyloid formation reaction. Final solution conditions contained 16 mM tris HCl and 10 μM ANS (pH 7.4). […] All values represent means±SEM (n=3).

[5] = Far-UV CD of h-IAPP species; format: physicochemical; conditions: at time points of toxicity
Method: CD measurements of IAPP, sRAGE and IAPP/sRAGE reactions were taken at various incubation times. Far-UV CD experiments monitor the development of secondary structure of h-IAPP species and give insight into the conformational requirement for IAPP/RAGE-binding. All CD experiments were performed on an Applied Photophysics circular dichroism spectrophotometer by directly transferring 300 μL of peptide solution from kinetic assays into a 0.1 cm quartz cuvette a few minutes prior to data collection. The CD spectra for sRAGE and tris HCl buffer was subtracted from all RAGE/IAPP mixtures. The final far-UV CD data was collected over the range of 190 to 260 nm. Final solution conditions contained 16 mM tris HCl (pH 7.4).

## CC[C@H](C)[C@H](NC(=O)[C@H](C)NC(=O)CNC(=O)[C@H](Cc1ccccc1)NC(=O)[C@H](CC(N)=O)NC(=O)[C@H](CC(N)=O)NC(=O)[C@H](CO)NC(=O)[C@H](CO)NC(=O)[C@H](Cc1c[nH]cn1)NC(=O)[C@@H](NC(=O)[C@H](CC(C)C)NC(=O)[C@H](Cc1ccccc1)NC(=O)[C@H](CC(N)=O)NC(=O)[C@H](C)NC(=O)[C@H](CC(C)C)NC(=O)[C@H](CCCNC(=N)N)NC(=O)[C@H](CCC(N)=O)NC(=O)[C@@H](NC(=O)[C@H](C)NC(=O)[C@@H]1CSSC[C@H](NC(=O)[C@@H](N)CCCCN)C(=O)N[C@@H](CC(N)=O)C(=O)N[C@@H]([C@@H](C)O)C(=O)N[C@@H](C)C(=O)N[C@@H]([C@@H](C)O)C(=O)N1)[C@@H](C)O)C(C)C)C(=O)N[C@@H](CC(C)C)C(=O)N[C@@H](CO)C(=O)N[C@@H](CO)C(=O)N[C@H](C(=O)N[C@@H](CC(N)=O)C(=O)N[C@H](C(=O)NCC(=O)N[C@@H](CO)C(=O)N[C@@H](CC(N)=O)C(=O)N[C@H](C(=O)N[C@@H](Cc1ccc(O)cc1)C(N)=O)[C@@H](C)O)C(C)C)[C@@H](C)O [h-IAPP, human islet amyloid polypeptide]
[1]
  MCP-1 and IL-1β mRNA expression: increase in MCP-1 and IL-1β mRNA expression
sRAGE
  binding to sRAGE (tryptophan fluorescence quenching): wave of fluorescence quenching
Mouse pancreatic islets
  loss in viability relative to buffer treatment alone: 50%
[2]; h-IAPP intermediates
  toxicity to smooth muscle cells: toxic to smooth muscle cells
[2]; increasing amounts of h-IAPP toxic species
  toxicity to RAGE-null versus wild type SMCs: genetic deletion of RAGE protects SMCs from h-IAPP toxicity compared to WT SMCs
[3]
  MCP-1 and IL-1β mRNA expression in smooth muscle cells: increase in MCP-1 and IL-1β mRNA expression
[4]
  protein pelleted: 6.5%
  solubility of toxic oligomers (centrifugation): soluble and cannot be pelleted
  solubility of toxic species (ultracentrifugation): soluble
[4]; 20 min
  protein remained in solution: 93.5%
ANS binding assay
  ANS binding to final amyloid fibrils: did bind
  ANS binding to monomeric form and intermediates: No ANS binding was observed
[5]
  secondary structure (far UV CD): some partial helical structure, but no beta sheet structure
